Laboratory results published in EP0400319A1, “4-(4'-Halophenyl)-2-methyl-1,2,3,4-tetrahydroisoquinolines and process for their preparation” (N I S PRI VCHTI, priority 1989, dated 1990).
“And” between values parts separate entries of the source, which are not always exact repeats. Equal values may be shown once. Where a name gives a salt, the structure may show the parent alone.

Tested on: durch Wasser-Immersionsstreß verursachte Magengeschwüre
Assay: Water-immersion stress induced gastric ulcers in rats
Assay type: in vivo, Ratten
Conditions: for Geschwürindex: 5 h water immersion; for Antiulkuswirkung im Vergleich zum Präparat Ranitidin: ratio of doses giving about 52% inhibition
From the text: Untersucht wurde auch die Antiulkusaktivität der razemischen 1a- und 1b-Verbindungen auf ein experimentelles Modell von Wasser-Immersionsstreß verursachten Magengeschwüren bei Ratten (Tabelle 2). Das Vergleichspräparat war der H₂-Antagonist Ranitidin.
Bestimmung der inhibierenden Wirkung von 1a und 1b auf durch Wasser-Immersionsstreß verursachte Magengeschwüre bei Ratten
Die Versuche wurden mit 280 weißen männlichen Ratten der Rasse Wistar mit einem Gewicht von 150 bis 200 g nach der in K. Takadi, Y. Ischii, Arzneim. Forsch. Drug Res., 1967, 17, 1544, beschriebenen Methode durchgeführt. 18 h vor dem Versuch hungern die Tiere unter freiem Wasserzutritt. Die Versuchsverbindung wird oral verabreicht, worauf die Tiere unbeweglich und voneinander isoliert auf dem Rücken auf eine Unterlage gebunden werden. Man legt die Tiere bei 17-18°C ins Wasser und tötet sie nach 5 h. Die Mägen werden entnommen und die destruktiven Veränderungen makroskopisch bestimmt.

SMILES	ED50 (Rattus norvegicus, 5 h, oral, Inhibierungsgrad 52% at this dose, read-out: durchschnittliche effektive Dosis) [mg/kg]	Dosis, bei der der Inhibierungsgrad ein Maximum erreicht (oral) [mg/kg]	Unterdrückung des Geschwürindex (oral, 0,050 mg/kg)	Geschwürindex (oral, 0,050 mg/kg)	Unterdrückung des Geschwürindex (oral, 0,100 mg/kg)	Geschwürindex (oral, 0,100 mg/kg)	Unterdrückung des Geschwürindex (oral, 0,500 mg/kg)	Geschwürindex (oral, 0,500 mg/kg)	Unterdrückung des Geschwürindex (oral, 1,000 mg/kg)	Geschwürindex (oral, 1,000 mg/kg)	Unterdrückung des Geschwürindex (oral, 3,000 mg/kg)	Geschwürindex (oral, 3,000 mg/kg)	Antiulkuswirkung im Vergleich zum Präparat Ranitidin (oral)	Unterdrückung des Geschwürindex (oral, 10 mg/kg)	Geschwürindex (oral, 10 mg/kg)	Unterdrückung des Geschwürindex (oral, 30 mg/kg)	Geschwürindex (oral, 30 mg/kg)
CN1Cc2ccccc2C(c2ccc(Br)cc2)C1 (racemic) [1a, 4-(4′-Bromphenyl)-2-methyl-1,2,3,4-tetrahydroisochinolin Hydrochlorid]	0.5	3	20,6%	69 ±18,2	48,9% and 48,3%	44,4 ± 9,66	52,1%	30,8 ±17,7	58,9%	35,7 ±14,2	70,3%	19,5 ±12,3	20 Mal				
CN1Cc2ccccc2C(c2ccc(F)cc2)C1 (racemic) [1b, 4-(4′-fluorphenyl)-2-methyl-1,2,3,4-tetrahydroisochinolin Hydrochlorid]									41,53%	38,5 ± 7,75	57,98%	27,66±12,73	Ähnliche Ergebnisse				
CNC(=C[N+](=O)[O-])NCCSCc1ccc(CN(C)C)o1 [Ranitidin, reference compound]							27%	32,3	39,27%	26,9	35,89%	28,4		46,98%	22,8	61,62%	17,0
